Consider 3 substances from patent publication US9487557B2, “Peptides for management of lactation” (MILEUTIS LTD., priority 2012, dated 2016).

Square brackets hold non-standard residues; d marks the D form. Ends that are not written are not given here. pS = N[C@@H](COP(=O)(O)O)C(=O)O

Holding throughout (assay type): in vivo
Assay [1] deals with mammary gland of lactating dairy cows. The experiment in a line: Field study of involution induction: change of pH in milk samples after a single intramammary infusion at dry-off. As to conditions: difference in pH vs Day 0, single intramammary infusion, peptides 4 mg in 10 ml, casein hydrolyzate 20 ml; for Changes of pH in milk samples, Day 1, Mean: Day 1 post treatment; for Changes of pH in milk samples, Day 2, Mean: Day 2 post treatment; for Changes of pH in milk samples, Day 3, Mean: Day 3 post treatment. As for the experimental part:
(§1) A filed study was performed to assess the potential of a single intramammary dose of the synthetic peptides of the invention administered at dry (i.e. at the day in which milking is ceased), to induce rapid involution.
(§2) Total of 107 dairy cows were enrolled to the study, of which 45 received treatment and 62 served as a control. All cows were dairy cows at their first or further lactation that stand the inclusion/exclusion criteria. The study was a controlled blinded case-control study.
(§3) Case subjects received one dose by intramammary infusion of a particular peptide. Controls were lactating cows that received the following products by intramammary administration:
(§4) Five groups of 9 cows (total of 36 udder quarters per group) were scheduled as case groups. Each group was treated with one out of the five (5) phosphopeptides described in Example 1 hereinabove (P241210-01-01; 03; 05; 07 and 09). The peptides were administered once via intramammary infusion of 10 ml containing 4 mg peptide.
(§5) Set one: Five groups of 9 cows (total of 36 udder quarters per group) were scheduled as a first control set. Each group was treated with one out of the five (5) dephosphorylated peptides described in Example 1 hereinabove (P241210-01-02; 04; 06; 08 and 10). The peptides were administered once via intramammary infusion of 10 ml containing 4 mg peptide.
(§6) (i) Eleven cows (total of 44 udder quarters) treated with casein hydrolyzate (20 ml) administered once via intramammary infusion of 20 ml (around 1.8 mg/ml casein phosphopeptide (CPP), total=36 mg CPP for 20 ml)
(§7) All treatments (peptides, casein hydrolyzate and saline) were administered at the time point scheduled for cessation of milking (dry off). The day of administration was set as Day 0.
(§8) Sets of aseptic milk samples were collected in two separate vials once a day in the milking facility after the morning milking, on Day 0 and in post-treatment days 1, 2 and 3. The sampling time points were set to up to three days after treatment administration to ensure sufficient milk secretion for the measurements of all involution parameters. The volume of the samples was between 30 to 50 ml. The pH of the milk sample was measured in situ using a Cyberscan pH11 meter (Eutech Instruments, Singapore). The apparatus was calibrated each day by immersing the receptor in standard buffers of pH 7.0 and pH 4.01. Measurements were taken twice for each sample obtained from a mammary gland, with an interval of 30 seconds between measurements. pH measurement was repeated on-site by using the same sample vial. Before double-pH measurement, the milk sample vials were gently shaken three (3) times. After the pH measurement, the milk samples vials were kept in cool storage with a preservative product (Broad Spectrum Microtabs II—Bronopol and Metamycin—D&F Control System Inc., Two Technology Way, Norwood Mass. 02062 USA).
(§9) Endpoint Measures: pH, lactose and somatic cell counts (SCC) values from milk secretions at day 0 and during three (3) days post-treatment were taken. Results are described as the difference between the measures at each of the 3 days post treatment and the measured level at Day 0.
Table 2 below summarizes the effect of the peptides examined and of casein hydrolyzate (CNH) on the pH of milk samples taken 1, 2 and 3 days after the one-dose treatment with each peptide or CNH. The results are presented as the difference in pH value between each of the days post treatment and Day 0 (before treatment).

Assay [2] shares this test system. The experiment in a line: Field study of involution induction: change in lactose content of milk samples after a single intramammary infusion at dry-off. The conditions noted are these: difference in lactose concentration vs Day 0, single intramammary infusion, peptides 4 mg in 10 ml, casein hydrolyzate 20 ml; for Changes in Lactose content in milk samples, Day 1, Mean: Day 1 post treatment; for Changes in Lactose content in milk samples, Day 2, Mean: Day 2 post treatment; for Changes in Lactose content in milk samples, Day 3, Mean: Day 3 post treatment. As for the experimental part:
as §1, §2, §3, §4, §5, §6, §7, §8
Lactose values in the milk samples were determined at the Central Laboratory of Milk Quality, Caesaria Industrial Park, Israel, according to ISO 2266211DF 198:2007.
Data from six quarters were excluded from the analysis of lactose changes. Data from one of those quarters were omitted due to a missing initial value. For the other five quarters, lactose concentrations taken during the three follow-up days could not be analyzed due to a rapid mammary involution process, resulting in non-sufficient milk sample for lactose analysis.
as §9
One of the most significant outcomes of involution in terms of milk composition is a reduction in lactose content. Thus, lactose concentration was also measured in the milk samples taken before and after peptide or CNH administration as described for the pH measurements hereinabove. […]

Assay [3] shares this test system. The experiment in a line: Field study of involution induction: change in somatic cell counts in milk samples after a single intramammary infusion at dry-off. The conditions noted are these: change vs Day 0, calculated from log transformation of raw data, single intramammary infusion, peptides 4 mg in 10 ml, casein hydrolyzate 20 ml; for Changes in Somatic Cell Counts in milk samples, Day 1, Mean: Day 1 post treatment; for Changes in Somatic Cell Counts in milk samples, Day 2, Mean: Day 2 post treatment; for Changes in Somatic Cell Counts in milk samples, Day 3, Mean: Day 3 post treatment. As for the experimental part: as §1, §2, §3, §4, §5, §6, §7, §8
Somatic cell count was also determined in milk samples by Fossomatic 360 (Foss Electric, Hillerod, Denmark), and based on guidelines from the USA National Mastitis Council. Laboratory Handbook on Bovine Mastitis. 1999. Ed. National Mastitis Council, Verona, Wis. 53593 USA.
as §9
Additional parameter that may be used to establish the progression of the involution process is the presence of somatic cells within the milk. The increase in cell count within the milk is the result of high degree of apoptotic epithelial cell death associated with involution. […] The results presented in the table were calculated from log transformation of the raw data that were highly variable.

On to Lys-Lys-Ser-Ser-NH2 [C], for which, in assay [1], the “Changes of pH in milk samples, Day 1, Mean” value (from here on “Changes of pH … Day 1, Mean”) came out at 0.034; the “Changes of pH in milk samples, Day 2, Mean” value (from here on “Changes of pH … Day 2, Mean”) is recorded as −0.006; the “Changes of pH in milk samples, Day 3, Mean” value (from here on “Changes of pH … Day 3, Mean”) is −0.001. In assay [2], the “Changes in Lactose content in milk samples, Day 1, Mean” value is −0.846; the “Changes in Lactose content in milk samples, Day 2, Mean” value is recorded as −1.554; the “Changes in Lactose content in milk samples, Day 3, Mean” value is −0.387. In assay [3], the “Changes in Somatic Cell Counts in milk samples, Day 1, Mean” value was 0.511; the “Changes in Somatic Cell Counts in milk samples, Day 2, Mean” value is reported as 1.194; the “Changes in Somatic Cell Counts in milk samples, Day 3, Mean” value is recorded as 0.650.
Regarding Lys-Lys-Ser-Ser-Ser-NH2 [B], in assay [1], the “Changes of pH … Day 1, Mean” value is recorded as −0.015; the “Changes of pH … Day 2, Mean” value was −0.019; the “Changes of pH … Day 3, Mean” value came out at 0.065. Also, in assay [2], the “Changes in Lactose content in milk samples, Day 1, Mean” value is given as −0.320; the “Changes in Lactose content in milk samples, Day 2, Mean” value is recorded as −0.969; the “Changes in Lactose content in milk samples, Day 3, Mean” value was −1.412. In addition, in assay [3], the “Changes in Somatic Cell Counts in milk samples, Day 1, Mean” value was 0.109; the “Changes in Somatic Cell Counts in milk samples, Day 2, Mean” value was 0.664; the “Changes in Somatic Cell Counts in milk samples, Day 3, Mean” value was 1.191.
As for “Lys-Ser(P)-Ser(P)-Ser(P)-Glu-Glu-NH2 (K[pS][pS][pS]EE-NH2; N-terminus assumed; SMILES NCCCC[C@H](N)C(=O)N[C@@H](COP(=O)(O)O)C(=O)N[C@@H](COP(=O)(O)O)C(=O)N[C@@H](COP(=O)(O)O)C(=O)N[C@@H](CCC(=O)O)C(=O)N[C@@H](CCC(=O)O)C(N)=O) [E(p), casein-derived peptide, positive control]”, in assay [1], the “Changes of pH … Day 1, Mean” value amounted to 0.045; the “Changes of pH … Day 2, Mean” value was 0.061; the “Changes of pH … Day 3, Mean” value was found to be 0.128. Further, in assay [2], the “Changes in Lactose content in milk samples, Day 1, Mean” value was −0.354; the “Changes in Lactose content in milk samples, Day 2, Mean” value is given as −1.530; the “Changes in Lactose content in milk samples, Day 3, Mean” value is recorded as −2.042. Also, in assay [3], the “Changes in Somatic Cell Counts in milk samples, Day 1, Mean” value was 0.060; the “Changes in Somatic Cell Counts in milk samples, Day 2, Mean” value is 1.175; the “Changes in Somatic Cell Counts in milk samples, Day 3, Mean” value is 1.847.
